Test results: patent US20220202739A1, “ENDOCANNABINOID MIMETIC AND ANTI-INFLAMMATORY COMPOUND CONTAINING COMPOSITIONS, METHODS OF PREPARATION AND USES THEREOF” (priority 2019, published 2022)

Assays:
Format in all cases: cell-based
CNR1 = test: Gene expression custom microarray, human skin fibroblasts (Example 1): CNR1
Excerpt: (§1) Cell cultures: A human skin fibroblast cell culture (or cultures) was obtained through the Coriell Cell Repository from the National Institute on Aging Cell Repository (Camden, N.J.), or Promocell GmbH (Heidelberg, Germany). The initial culture was selected from the following cell lines: AG13066, AG11557, AG11796 or GM03651E. The cell lines were derived from donors as follows:
(§2) Experimental phase: When the appropriate quantity of cells had been grown, they were detached as described above, but at the final step were seeded into each well of one or more 6 well dishes. Each well received 2 ml of the cell suspension so they were seeded equally. The dishes were returned to the incubator until 85-95% confluency was reached.
(§3) It is at this stage that all wells were rinsed in PBS after aspirating the growth media. The compound(s) to be tested were previously mixed into a suitable solvent (e.g., DMSO or ethanol) that can be diluted to the desired concentration of test compound (10 μl) in the culture wells without exceeding maximum solvent concentrations and adversely effecting cell viability, and mixed with basal media. NOTE: Standard maximum levels of solvent are 0.1% for DMSO and 0.5% for ETOH. The concentration of each test compound is found in Tables 1 & 2.
(§4) Every 2 wells on the 6 well plate served as a biological replicate for the purposes of RNA isolation and genetic expression evaluations making each 6 well dish an n=3 for the test compound(s) contained in the media. Negative control plates (no test compound(s) and only basal media) were also generated. The plates were returned to the incubator for 24 hrs.
(§5) At the end of the 24 hr time period, the plates were removed from the incubator, the test media aspirated, and the cells rinsed with PBS. RNA isolation is performed using the BioRad Aurum Total RNA Mini Kit (Hercules, Calif.) per manufacturer's protocol; which is described, in brief, below: • Add 350 μl of lysis buffer to each well. Pipet multiple times to ensure thorough lysis. Add lysed cells to the collection tube. • Add 350 μl of 70% ETOH to the collection tube and mix thoroughly. • Pipet the generated lysate onto the spin column placed in a new 2 ml tube. Centrifuge for 30 sec between 8,000 and 10,000 g. • Place the spin column containing the now bound RNA, in a new 2 ml tube. Add 700 μl of low stringency wash solution to the spin column. Centrifuge for 30 sec between 8,000 and 10,000 g. Discard the flow through and replace spin column. • Add 80 μl of DNase I dilution to the spin column and incubate at room temperature for 15 minutes. • Add 700 μl of high stringency wash solution to the column and centrifuge for 30 sec between 8,000 and 10,000 g. Discard flow through. • Add 700 μl of low stringency wash solution to the column and centrifuge for 60 sec between 8,000 and 10,000 g. Discard flow through. • Centrifuge for 2 minutes to remove residual wash solution. • Transfer spin column to new 1.5 ml collection tube and add 80 μl of elution solution to the column. Allow 1 minute for saturation of the membrane and then centrifuge for 2 minutes to complete the RNA elution. • Quantify the quantity of RNA and store at −20 C° until use (no more than 1 month)
(§6) The genes tested were: • Cannabinoid receptor 1 (CB1(CNR1)) • Cannabinoid receptor 2 (CB2 (CNR2)) • Fatty acid amide hydrolase (FAAH) • Monoacylglycerol lipase (MGLL, i.e., MAGL) • Peroxisome proliferator-activated receptor gamma (PPARG) • Nuclear factor kappa-light-chain-enhancer of activated B cells (NFκβ) • Interleukin 1 Alpha (IL1alpha) • Cyclooxygenase 1 (PTGS1, i.e., COX1) • Transient receptor potential cation channel subfamily A member 1 (TRPA1) • Transient receptor potential cation channel subfamily V member 1 (TRPV1) • Transient receptor potential cation channel subfamily M member 8 (TRPM8) • Hemoglobin Subunit Beta (HBB) REFERENCE GENE • Ribosomal Protein L13a (RPL13A) REFERENCE GENE […]

PTGS1 = test: Gene expression custom microarray, human skin fibroblasts (Example 1): PTGS1; details: human skin fibroblasts, 10 uM, 24 hr
Excerpt: as §1, §2, §3, §4, §5, §6

NFKB1 = test: Gene expression custom microarray, human skin fibroblasts (Example 1): NFKB1; details: human skin fibroblasts, 10 uM, 24 hr
Excerpt: as §1, §2
as §3, with “ETOH.” for “ETOH. The concentration of each test compound is found in Tables 1 & 2.”
as §4, §5
The genes tested were: • Cannabinoid receptor 1 (CB1(CNR1)) • Cannabinoid receptor 2 (CB2 (CNR2)) • Fatty acid amide hydrolase (FAAH) • Monoacylglycerol lipase (MGLL, i.e., MAGL) • Peroxisome proliferator-activated receptor gamma (PPARG) • Nuclear factor kappa-light-chain-enhancer of activated B cells (NFκβ) • Interleukin 1 Alpha (IL1alpha) • Cyclooxygenase 1 (PTGS1, i.e., COX1) • Transient receptor potential cation channel subfamily A member 1 (TRPA1) • Transient receptor potential cation channel subfamily V member 1 (TRPV1) • Transient receptor potential cation channel subfamily M member 8 (TRPM8) • Hemoglobin Subunit Beta (HBB) REFERENCE GENE • Ribosomal Protein L13a (RPL13A) REFERENCE GENE

MAGL = test: Gene expression custom microarray, human skin fibroblasts (Example 1): MAGL
Excerpt: as §1, §2, §3, §4, §5, §6

FAAH = test: Gene expression custom microarray, human skin fibroblasts (Example 1): FAAH
Excerpt: as §1, §2, §3, §4, §5, §6

[1] = human skin fibroblasts, 10 uM, 24 hr

Structure (SMILES)	CNR1↑ gene expression, fold increase or decrease vs untreated cells (CNR1; [1])	PTGS1↓ gene expression, fold increase or decrease vs untreated cells (PTGS1)	NFKB1↓ gene expression, fold increase or decrease vs untreated cells (NFKB1)	MAGL↓ gene expression, fold increase or decrease vs untreated cells (MAGL; [1])	FAAH↓ gene expression, fold increase or decrease vs untreated cells (FAAH; [1])	fold induction at 10 µM (CNR1; Homo sapiens, Skin fibroblast, 24 h, read-out: CNR1↑ gene expression, fold increase or decrease vs untreated cells)	fold induction at 10 µM (PTGS1; Skin fibroblast, read-out: PTGS1↓ gene expression, fold increase or decrease vs untreated cells)	fold induction at 10 µM (NFKB1; Skin fibroblast, read-out: NFKB1↓ gene expression, fold increase or decrease vs untreated cells)	fold induction at 10 µM (MAGL; Homo sapiens, Skin fibroblast, 24 h, read-out: MAGL↓ gene expression, fold increase or decrease vs untreated cells)	fold induction at 10 µM (FAAH; Homo sapiens, Skin fibroblast, 24 h, read-out: FAAH↓ gene expression, fold increase or decrease vs untreated cells)
CCCCCCCCCCCCCCCC(=O)NCCO [N-palmitoylethanolamide]	5.9 fold	1.1 fold	1.5 fold	2.8 fold	−1.1 fold					
C=C(C)[C@@H]1CCC(C)=C[C@H]1c1c(O)cc(CCCCC)cc1O [CBD, cannabidiol, reference compound]						1.5	4.2	2.3	1.8	2.2
